The text below walks through data of publication PMC9917099, “The Mycotoxin Patulin Inhibits the Mitochondrial Carnitine/Acylcarnitine Carrier (SLC25A20) by Interaction with Cys136 Implications for Human Health” (International Journal of Molecular Sciences, 2023).

Structures are written as SMILES. Numbering of substitutions follows the chain as printed. “And” between values parts separate entries of the source, which are not always exact repeats. Equal entries are not always repeated.

Data set [1] has as its target T1, native mitochondrial carnitine/acylcarnitine carrier (CAC, SLC25A20) (Rattus norvegicus, UniProt P97521).
T1 construct: the native protein extracted from rat liver mitochondria; from tissue; host or cells: rat liver mitochondria (Triton X-100 extract)
T1 sequence (P97521 1-301): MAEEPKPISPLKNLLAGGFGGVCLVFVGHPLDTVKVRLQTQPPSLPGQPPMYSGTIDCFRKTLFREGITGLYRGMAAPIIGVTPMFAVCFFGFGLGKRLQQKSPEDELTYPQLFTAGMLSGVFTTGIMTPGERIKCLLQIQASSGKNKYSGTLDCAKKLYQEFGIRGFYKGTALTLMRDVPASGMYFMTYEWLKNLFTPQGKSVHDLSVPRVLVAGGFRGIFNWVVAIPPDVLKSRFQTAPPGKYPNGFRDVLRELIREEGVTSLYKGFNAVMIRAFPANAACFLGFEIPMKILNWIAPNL
The data set can be described thus: [3H]-carnitine/carnitine antiport in proteoliposomes reconstituted with native CAC extracted from rat liver mitochondria. Format: biochemical. As to conditions: PAT incubated 30 min, 0.1 mM [3H]carnitine 10 min, read-out: IC50 of CAC inhibition. As for the experimental part:
For studying the effect of PAT on the native mitochondrial CAC, a dose–response analysis on the rat liver-extracted mitochondria was performed. Aliquots of the mitochondrial extract (0.3 mg of total proteins) were reconstituted in liposomes and incubated for 30 min with several concentrations of PAT before starting the transport assay as [^3H]-carnitine/carnitine antiport (see Materials and Methods).
Figure 1 Effect of Patulin on the native carnitine/acylcarnitine carrier (CAC). (A) Dose-response analysis of proteoliposomes reconstituted with the CAC extracted from rat liver mitochondria (0.3 mg of total proteins) and incubated with PAT at the indicated concentrations for 30 min, before measuring the transport activity by adding 0.1 mM [^3H] carnitine for 10 min as described in Materials and Methods. The percentage of residual activity compared to control, without PAT treatment, is reported. […]
(§1) For the transport assay, 550 μL of proteoliposomes were passed through a Sephadex G-75 column in order to remove the external substrate. […] After finishing the transport reaction, the external radiolabel substrate was removed by gel filtration chromatography (Sephadex G-75), and the intraliposomal radioactivity was measured by liquid scintillation. Transport was measured at 25 °C. […] Transport rates were measured in 10 min, i.e., within the initial linear range of the time course.

For data set [2], the target named is T2, rat CAC mutant C23V/C58V/C89S/C155V/C283S (Rattus norvegicus, UniProt P97521, C155V/C23V/C283S/C58V/C89S).
T2 construct: made in house; host or cells: E. coli C0214 (pMW7, inclusion bodies)
T2 sequence (P97521 1-301 C23V/C58V/C89S/C155V/C283S): T1 sequence (P97521 1-301) with C23V, C58V, C89S, C155V, C283S
The data set can be described thus: Carnitine antiport in proteoliposomes, CAC mutant containing only C136. Format: biochemical. As for the experimental part:
To shed light on the interaction between PAT and CAC and verify if specific Cys residues were involved, transport experiments on the recombinant rat and human WT CAC and CAC’s rat Cys mutants were performed. As in the case of the native protein, transport activities were measured as [^3H]-carnitine/carnitine antiport in proteoliposomes. […] The PAT inhibition of the WT recombinant protein was only slightly greater compared to the native protein, although compounds and other molecular systems that affect the mycotoxin binding to the native CAC were absent (see above). For identifying the residues involved in the PAT interaction, site-directed Cys mutants were tested for inhibition (Figure 2). […]
Figure 2 Dose-response analysis of the PAT inhibition of the CAC recombinant proteins. […] The data are expressed as a percentage of the controls (no PAT addition) and are means ± SD of three independent experiments. […]
as §1

The test system of the next data set is cell viability. Details: method as in PMID 25098256. Particulars: 60 µM; cited from earlier work.

Usually IC50 stands for the point on the concentration scale where inhibition reaches its midpoint.

Regarding `O=C1C=C2C(=CCOC2O)O1` (stereo not drawn) [PAT, 4-hydroxy-4H-furo [3,2c] pyran-2 [6H] -one], the IC50 in data set [1] was 55 µM and ~50 µM; in data set [2] it was “comparable to the WT”. Moreover, in the data set with cell viability, the “toxicity for cell viability” value was “nontoxic range”.
